In patent publication US20250154112A1, “A PREPARATION OF QUINAZOLINEDIONES AND USE THEREOF” (COUNCIL OF SCIENTIFIC AND INDUSTRIAL RESEARCH AN INDIAN …, priority 2021, published 2025):

What was measured:
ATGL [1] = assay: In vivo study, Western blot of ATGL in mice liver and adipose tissue; set-up: species or system C57BL/6 mice; details: 80 mg/kg orally, 9 days
Experimental: 6-8 weeks old healthy male C57BL/6 mice (average weight: 28 grams) were taken for the study. These were then divided into two groups comprising of three mice per group (Control, compound 62). Mice were fed with 80 mg/kg of compound 62 orally. The compound was dissolved in 10% EtOH, 40% PEG, 20% PG, 30% NaCl solution (0.9%). The control group was fed only with the solvent in which the compound was dissolved. Post 9 days of one-time feeding mice were sacrificed and a portion of the excised liver tissue and adipose was homogenized in lysis buffer containing protease inhibitor cocktail. The homogenate was centrifuged at 20,000 g for 30 minutes following which the supernatant containing the protein lysate was collected. The lysate was then diluted accordingly, and protein estimation was carried out by Bradford Assay. This was followed by Western Blotting wherein the levels of ATGL and COP1 were checked. Actin was used as the loading control.

[2] = test system: C57BL/6 mice fed with high fat diet (HFD); assay: HFD induced fatty liver disease model; type: in vivo; details: HFD 12 weeks, 80 mg/kg orally for the last 4 weeks
Experimental: A preclinical therapeutic model was developed where C57BL/6 mice were fed with 60% kcal high fat diet (HFD) for 12 weeks, and for the last 4 weeks the mice were orally fed with the compound 62 at 80 mg/kg body weight dose.

HepG2 cells = assay: Confocal microscopy of lipid droplets in oleate induced HepG2 cells; type: cell-based; details: 250 μM oleate induction, 100 nM and 500 nM, 24 hours
Experimental: To select the compounds capable of inhibiting the ubiquitination of ATGL by COP1 by targeting the VP motif, confocal microscopy was performed with the provided molecules. If the compound was effective in inhibiting the interaction, there would have been a reduction in the number of fat droplets in the cells after treatment. […] With this rationale in mind, HepG2 cells were induced to accumulate lipid droplets after treatment with 250 μM of oleate and 10 μM of the specific compounds were added. The potential of the compounds to bring about a reduction in the number of fat droplets was then checked by comparison with oleate induced cells by counting number of droplets of approximately 20 cells from each treatment and calculating the average number of lipid droplets of each cell. The selected compounds were then subjected to dose dependent treatments and the ones which could maintain its potency to reduce fat droplets at lower doses were then selected for western blot analysis. The compound which could reduce the number of fat droplets in the cells were expected to raise the levels of ATGL since they were likely to deter COP1 from ubiquitinating ATGL. This increase was visible only in the protein level and gene expression was likely to remain unchanged since ubiquitination is a […] modification. […]

ATGL [3] = assay: Western blot of ATGL level in primary mouse hepatocytes; type: cell-based; details: 10 nM to 500 nM, 24 hours, with respect to control
Experimental: To further strengthen the efficiency of the compound 62, primary hepatocytes were isolated from mice and these compounds were treated in a dose dependent manner for 24 hours. Primary hepatocytes and adipose tissue explants were isolated from mice and subjected to compound treatment for 24 hours at the doses of 10 nM, 20 nM, 50 nM, 100 nM and 500 nM. Post cell harvesting, western blot was carried out with the lysate to check the ATGL level. ATGL and COP1 antibodies were used. Actin served the purpose of a loading control.
Hepatocytes-2-4 months old chow-fed black male mouse (C57b1/6) was sacrificed using chloroform (SRL) and was cleaned with 70% ethanol. […] Blood was drawn from the heart in order to prevent backflow into liver while perfusion. The butterfly cannula was inserted into the PV and 20 ml of HBSS (Hank's Balanced Salt Solution; 5 mM KCl, 0.4 mM KH2PO4, 4 mM NaHCO3, 140 mM NaCl, 0.3 mM Na2HPO4, 6 mM Glucose, HEPES, 0.5 mM MgCl2.6H2O, 0.4 mM MgSO4·7H2O, 0.5 mM EDTA; not containing 1 mM CaCl2)) was allowed to pass through the liver (Perfusion) at a constant flow rate of 3 ml/min, maintained by Masterflex digital peristaltic pump (Cole-Parmer). The IVC was cut as soon as the passage of the buffer through the liver began, so that blood and perfusate from liver was drained through the IVC. The liver blanched and became pale in color upon this treatment. […]

With `COCCn1c(=O)c2cc(NC(=O)Nc3cccc(C(C)=O)c3)ccc2n(CCN2CCCCC2)c1=O` [Compound 62, 1-(3-acetylphenyl)-3-(3-(2-methoxyethyl)-2,4-dioxo-1-(2-(piperidin-1-yl)ethyl)-1,2,3,4-tetrahydroquinazolin-6-yl)urea] the “ATGL levels in liver and adipose lysates” value (ATGL [1]) was “effective in increasing ATGL and COP1 levels”, the body weight [2] was “Reductions” and the hepatic fibrogenesis [2] was “improvement in hepatic fibrogenesis”. For the same molecule, the “hepatic lipid droplets (FIG. 7A)” value [2] was “considerable depletion of hepatic lipid droplets”, the liver triglyceride content [2] was “Reductions” and the serum cholesterol level [2] was “Reductions”. The total liver weight [2] was “Reductions”, the “number of lipid droplets” value (HepG2 cells) was “decrease in the number of lipid droplets” and the “ATGL level (Western Blot)” value (ATGL [3]) was “increased ATGL level”.
